A word on the EC50: it is the concentration giving half of the maximal effect.

Molecules are shown by their SMILES. Where two headings read alike, the source gives them in different places.

Here are results for 2 molecules from publication PMC9612005 (Pharmaceutics, 2022).

This experiment deals with T1, cone CNG channels (CNGA3:CNGB3) (Homo sapiens, UniProt Q16281+Q9NQW8).
T1 construct: expressed in transfected cells; host or cells: Xenopus laevis oocytes (cRNA injection, pGEMHE vector); inside-out patches
T1 sequence (Q16281 1-694): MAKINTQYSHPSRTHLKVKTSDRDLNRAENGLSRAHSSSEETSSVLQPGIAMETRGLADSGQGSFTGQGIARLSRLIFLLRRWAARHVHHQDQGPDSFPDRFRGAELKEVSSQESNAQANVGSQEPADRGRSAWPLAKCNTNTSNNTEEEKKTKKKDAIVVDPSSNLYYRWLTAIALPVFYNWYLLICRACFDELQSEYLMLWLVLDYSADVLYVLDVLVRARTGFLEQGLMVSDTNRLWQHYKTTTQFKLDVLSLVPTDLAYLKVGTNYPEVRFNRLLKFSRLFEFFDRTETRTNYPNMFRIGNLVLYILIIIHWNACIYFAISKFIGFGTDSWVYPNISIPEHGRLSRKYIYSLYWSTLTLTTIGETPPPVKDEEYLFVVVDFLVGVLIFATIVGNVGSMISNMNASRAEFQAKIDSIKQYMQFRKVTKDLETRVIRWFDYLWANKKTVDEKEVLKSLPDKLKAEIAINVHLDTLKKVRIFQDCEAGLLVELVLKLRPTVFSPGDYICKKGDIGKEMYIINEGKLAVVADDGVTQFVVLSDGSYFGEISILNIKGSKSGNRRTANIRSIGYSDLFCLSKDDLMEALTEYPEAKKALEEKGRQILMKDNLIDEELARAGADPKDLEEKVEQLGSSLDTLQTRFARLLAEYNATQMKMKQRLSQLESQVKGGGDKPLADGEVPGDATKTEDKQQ
T1 sequence (Q9NQW8 1-809): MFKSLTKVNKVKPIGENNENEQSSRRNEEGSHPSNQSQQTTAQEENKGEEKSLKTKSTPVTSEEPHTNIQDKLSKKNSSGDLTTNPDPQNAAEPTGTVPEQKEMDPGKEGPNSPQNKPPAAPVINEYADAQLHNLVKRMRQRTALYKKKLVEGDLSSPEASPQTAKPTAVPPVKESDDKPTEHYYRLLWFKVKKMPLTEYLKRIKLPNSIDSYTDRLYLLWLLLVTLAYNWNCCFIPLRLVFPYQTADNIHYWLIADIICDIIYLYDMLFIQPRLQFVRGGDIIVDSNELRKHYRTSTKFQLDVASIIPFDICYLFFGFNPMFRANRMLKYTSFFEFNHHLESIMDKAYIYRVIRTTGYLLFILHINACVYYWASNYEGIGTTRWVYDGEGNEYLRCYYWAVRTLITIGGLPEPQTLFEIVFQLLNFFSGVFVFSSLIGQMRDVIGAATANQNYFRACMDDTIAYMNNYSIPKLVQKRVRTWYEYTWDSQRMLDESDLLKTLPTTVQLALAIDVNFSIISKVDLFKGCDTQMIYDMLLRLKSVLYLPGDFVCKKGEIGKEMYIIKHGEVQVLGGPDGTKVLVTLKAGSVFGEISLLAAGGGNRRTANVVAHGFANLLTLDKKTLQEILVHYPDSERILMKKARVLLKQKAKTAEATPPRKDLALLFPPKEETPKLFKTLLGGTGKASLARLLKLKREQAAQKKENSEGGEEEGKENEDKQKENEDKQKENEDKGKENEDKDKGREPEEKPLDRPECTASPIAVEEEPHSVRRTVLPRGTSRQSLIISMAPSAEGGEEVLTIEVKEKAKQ
Put plainly: Patch-clamp on inside-out patches, heterotetrameric cone CNG channels expressed in Xenopus laevis oocytes. It counts as cell-based. The source says: The patch pipettes were pulled from borosilicate glass tubing (outer diameter 2.0 mm, inner diameter 1.0 mm; Hilgenberg GmbH, Malsfeld, Germany). The initial resistance of the solution-filled pipettes was 0.6–1.4 MΩ. […] For studying the activation and deactivation kinetics of CNG channels, we performed fast jumps between different ligand concentrations by means of a double-barreled θ-glass pipette mounted on a piezo-driven device, which was controlled by the computer. For measuring the time courses, the recording rate was 20 kHz.
The activation and deactivation time courses were determined by fitting the respective current traces with single exponentials:(3) I(t)=A∗exp[−t/τ] where A is the amplitude, t the time, and τ the time constant for either activation or deactivation.

In the case of `O=c1c2nc(Br)n([C@@H]3O[C@@H]4CO[P@@](=O)(S)O[C@H]4[C@H]3O)c2nc2[nH]c(-c3ccccc3)cn12` [Rp-8-Br-PET-cGMPS], the EC50 was found to be 4400 nM. Also, the “decrease in the apparent affinity of cone CNG channels” value (50 µM analogue) is on record as ~ 3.2 fold. The “H (Hill coefficient), cone CNG channels” value (cGMP + 50 µM of the cGMP analogue) was 1.97.

Turning to `Nc1nc2c(nc(Sc3ccc(Cl)cc3)n2[C@@H]2O[C@@H]3COP(=O)(O)O[C@H]3[C@H]2O)c(=O)[nH]1` [8-pCPT-cGMP], for the setting “0.1 µM”, the “cone CNG-channel activation” value is listed as ~ 90%. Moreover, where the note is “higher potency than cGMP”, the “potency compared to cGMP, cone channel” value is ~ 138 times. Also, under “ligand alone”, the “H (Hill coefficient), cone CNG channels” value is recorded as 1.74. Also, the EC50 (ligand alone, concentration-activation relationship, Hill fit, read-out: EC50, cone CNG channels) is 80 nM.
